This note sets out measurements from patent publication US20220002288A1, “MONOBACTAM COMPOUNDS AND USE THEREFOR” (priority 2018, published 2022).

Counter-ions that a name gives are not always drawn. Some results are limits rather than exact numbers.

Assay type in all cases: cell-based
Experiment [1] has as its system drug-resistant Acinetobacter baumannii. The experiment in a line: MIC in combination with Relebactam. An excerpt: In addition, the inventors of the present invention also tested the inhibitory activities of the compound of Example 1 and Compound C, respectively, in combination with Relebactam on drug-resistant Acinetobacter baumannii (the experimental method was the same as that in Experimental Example 1).

In another experiment the test system is Escherichia coli. The experiment in a line: In vitro antibacterial activity, minimum inhibitory concentration (MIC). The conditions noted are these: strain CLB30048, read-out: MIC. The method, then:
(§1) Compounds: The compounds prepared in the above examples and comparative examples. All test compounds were dissolved and diluted with DMSO, and the final concentrations were prepared as 64, 32, 16, 8, 4, 2, 1, 0.5, 0.25, 0.125, 0.0625 μg/mL in the experiment.
(§2) Bacterial strains: 6 strains of Acinetobacter baumannii (codenames: HDBAB-YK4, HDBAB-YK7, HDBAB-YK12, HDBAB-YK16, HDBAB_OXA_7, ATCC 19606), 2 strains of Pseudomonas aeruginosa (codenames: HDBPA-YK9, HDBPA)-YK15), 1 strain of Escherichia coli (codename: CLB30048), all provided by HD Biosciences (Shanghai) Co., Ltd.
(§3) Medium: Trypticase soy agar (TSA) (BD BBL 211043), and Cation-adjusted Mueller Hinton broth (CAMHB) (BD BBL212322).
(§4) The bacteria used for the minimum inhibitory concentration (MIC) test were stored frozen at −80° C., and needed 2 days to recover before use. A small amount of frozen bacteria was scraped with a sterile inoculation loop for streak inoculation on a TSA solid medium petri dish. The dish was placed in an ordinary incubator at 35±2° C. for 20-24 hours. 5-10 Colonies with similar morphologies were picked from the above-mentioned petri dish with a sterile inoculating loop for streak inoculation again on a TSA solid medium petri dish. The dish was then placed in an ordinary incubator at 35±2° C. for 20-24 hours.
(§5) 1.02×CAMHB liquid medium was taken out from a 4° C. refrigerator and placed at room temperature for preheating. 5-10 Individual bacterial colonies were picked from the solid petri dish of the above Section 2.1 and re-suspended in 500 μL of 0.9% NaCl, and then the OD600 was adjusted to 0.1-0.15 with a spectrophotometer. Then the bacteria were diluted 400 times with 1.02×CAMHB (two-step dilution method: firstly diluting 10 times, then diluting 40 times).
(§6) The number of inoculated bacteria can be obtained by counting the colonies on the petri dish (see Section 2.4).
(§7) One compound was arranged in each row of a 96-well test plate: the highest test concentration for each compound was 64 μg/mL, which was diluted by a factor of two.
(§8) Growth control (GC): 1.02×CAMHB and dimethyl sulfoxide (DMSO) containing bacterial inoculum, no compound.
(§9) Sterile control (SC): Containing 1.02×CAMHB and DMSO, no compound.
(§10) All test compounds were dissolved and diluted with DMSO. 50 μL of 3.2 mg/mL of each test compound was transferred to the initial well (A1-H1) of the dilution plate, and then 25 μL of DMSO was transferred to other wells. The test compounds were sequentially diluted by a factor of 2 from column 1 to column 11 (i.e. drawing 25 μL of test compound from column 1 to column 2 and mixing well, and then drawing 25 μL of test compound from column 2 to column 3 and mixing well, and then drawing 25 μL of test compound from column 3 to column 4 and mixing well, and so on, until diluting to column 11).
(§11) 2 μL of the compound was transferred from the compound plate to the corresponding well of the test plate. Meanwhile, 2 μL of 100% DMSO was transferred to the compound-free wells (the GC and SC wells).
(§12) 98 μL of the corresponding bacterial inoculum was added to the test plate (except for the SC well).
(§13) 98 μL of 1.02×CAMHB medium was added to the SC well of the test plate.
(§14) After the system was added, the test plate was covered with a sterile lid, centrifuged at 800 rpm for 30 seconds, then shaken on a plate shaker at 400 rpm for 1 minute for mixing well, and then placed in an incubator at 35±2° C. for 20 hours.
(§15) The inoculated bacteria were gradient diluted by 10 folds with the liquid medium, from 10^−1 to 10^−3. 100 μL of the above bacterial dilution was spread evenly on a TSA petri dish, 2 replicates for each dilution. After the medium was absorbed by TSA for 10 minutes, the petri dishes were reversed and incubated in an incubator at 35±2° C. for 24 hours.
(§16) A compound management system was turned on to check whether the barcode and compound arrangement of each test plate were correct. […]

In another experiment the test system is Pseudomonas aeruginosa. Described as above. Here is the method: as §1, §2, §3, §4, §5, §6, §7, §8, §9, §10, §11, §12, §13, §14, §15, §16
The next experiment concerns Acinetobacter baumannii. The experiment is described as above. The method, then:
as §1, §2, §3, §4, §5, §6, §7, §8, §9, §10, §11, §12, §13, §14, §15, §16

The subject of experiment [2] is clinically isolated Escherichia coli. The experiment in a line: MIC experiment of clinically sourced bacterial strains. The method, then:
Compounds: the compound of Example 1 and Compound C of Comparative Example 3. Both test compounds were dissolved and diluted with DMSO, and the final concentrations were prepared as 64, 32, 16, 8, 4, 2, 1, 0.5, 0.25, 0.125, 0.0625 μg/mL in the experiment.
Bacterial strains: clinically isolated Acinetobacter baumannii, Pseudomonas aeruginosa, Klebsiella pneumoniae and Escherichia coli, all provided by HD Biosciences (Shanghai) Co., Ltd.
as §3
The experimental method was the same as that in the above Experimental Example 1.

For experiment [3], the system named is Acinetobacter baumannii, Pseudomonas aeruginosa, and Escherichia coli. Briefly: In vitro antibacterial activity, summary statements over all strains of Experimental Example 1. The note with it: method of Experimental Example 1. The method, then:
as §1, §2
The minimum inhibitory concentration (MIC) of each compound was recorded according to the guidelines of the Clinical and Laboratory Standards Institute.

By MIC is commonly meant the smallest concentration in the dilution series that meets the test's criterion for growth inhibition. For `CC1(C)[C@H](NC(=O)/C(=N\O[C@@H](COc2ccc(C(=O)Nc3cn(CCCN)[n+](CC4CNC4)c3)cc2)C(=O)O)c2csc(N)n2)C(=O)N1OS(=O)(=O)[O-]` [Example 1, (S)-3-((Z)-2-(((S)-2-(4-((1-(3-aminopropyl)-2-(azetidin-3-ylmethyl)-1H-pyrazol-2-ium-4-yl)carbamoyl)phenoxy)-1-carboxyethoxy)imino)-2-(2-aminothiazol-4-yl)acetylamino)-2,2-dimethyl-4-oxoazetidin-1-yl Sulfate], the MIC was 2 µg/mL in experiment [1] (strain HDBAB-YK12, in combination with 4 μg/mL Relebactam); 4 µg/mL in experiment [1] (strain HDBAB-YK16, in combination with 4 μg/mL Relebactam); 2 µg/mL in experiment [1] (strain HDBAB_OXA_7, in combination with 4 μg/mL Relebactam); 2 µg/mL with Escherichia coli; 2 µg/mL against Pseudomonas aeruginosa (strain HDBPA-YK9); 32 µg/mL in the experiment on Pseudomonas aeruginosa (strain HDBPA-YK15). In addition, the MIC in the experiment with Acinetobacter baumannii (ATCC19606, strain ATCC 19606) came to 2 µg/mL; against Acinetobacter baumannii (strain HDBAB-YK4) it was 2 µg/mL; in the experiment on Acinetobacter baumannii (strain HDBAB-YK7), 0.25 µg/mL; in the experiment with Acinetobacter baumannii (strain HDBAB-YK12), 2 µg/mL; with Acinetobacter baumannii (strain HDBAB-YK16), 8 µg/mL; against Acinetobacter baumannii (strain HDBAB_OXA_7) it was 4 µg/mL. Further, the MIC in experiment [2] (clinical strain HDB0140) was 1 µg/mL; in experiment [2] (clinical strain HDB0918), 0.25 µg/mL; in experiment [2] (clinical strain HDB1120), at most 0.063 µg/mL; in experiment [2] (clinical strain HDB5510), 0.125 µg/mL; in experiment [2] (clinical strain HDB8244) it was 0.5 µg/mL. In experiment [3], the “in vitro antibacterial activity (in words)” value was “excellent antibacterial activity”.
